Values of other authors, collected in patent publication US20060189608A1, “Methods for treating ocular angiogenesis, retinal edema, retinal ischemia, and diabetic retinopathy using selective RTK inhibitors” (Alcon, Inc., priority 2005, published 2006).

How the values were obtained:
[1] = test system: preretinal and choroidal NV; details: oral administration, mice; cited from earlier work
diabetic macular edema = details: human patients with diabetic macular edema, cited from earlier work

Compound: CO[C@@H]1[C@H](N(C)C(=O)c2ccccc2)C[C@H]2O[C@]1(C)n1c3ccccc3c3c4c(c5c6ccccc6n2c5c31)C(=O)NC4 [PKC-412]
- effect on preretinal and choroidal NV [1]: inhibited both preretinal and choroidal NV in mice
- macular edema and visual acuity (diabetic macular edema; pilot results): a reduction in macular edema and an improvement in visual acuity
- liver toxicity (diabetic macular edema): concerns related to liver toxicity halted the clinical trials
